How the values were obtained:
Assay in all cases: concentration in plasma after dosing
rat [1] = details: dosed: Simazine, 0.4000000000 mg/kg, iv, male, Sprague-Dawley
rat [2] = details: dosed: Simazine, 0.4000000000 mg/kg, iv, male, Sprague-Dawley; remark: listed apart in the source
rat [3] = details: dosed: Simazine, 2.0000000000 mg/kg, oral, male, Sprague-Dawley
rat [4] = details: dosed: Simazine, 0.4000000000 mg/kg, iv, male, Sprague-Dawley; remark: listed apart in the source
rat [5] = details: dosed: Simazine, 2.0000000000 mg/kg, oral, male, Sprague-Dawley; remark: listed apart in the source
rat [6] = details: dosed: Simazine, 2.0000000000 mg/kg, oral, male, Sprague-Dawley; remark: listed apart in the source
rat [7] = details: male, Sprague-Dawley
rat [8] = details: dosed: Triclosan, 1.0000000000 mg/kg, iv, male, Sprague-Dawley
rat [9] = details: dosed: Triclosan, 1.0000000000 mg/kg, iv, male, Sprague-Dawley; remark: listed apart in the source
rat [10] = details: dosed: Triclosan, 1.0000000000 mg/kg, iv, male, Sprague-Dawley; remark: listed apart in the source
rat [11] = details: dosed: Triclosan, 1.0000000000 mg/kg, iv, male, Sprague-Dawley; remark: listed apart in the source
rat [12] = details: dosed: Triclosan, 1.0000000000 mg/kg, iv, male, Sprague-Dawley; remark: listed apart in the source

## CCNc1nc(Cl)nc(NCC)n1 [Simazine]
Rat [1]; 5 min
  concentration in plasma: 127 ng/mL
Rat [1]; 10 min
  concentration in plasma: 95.5 ng/mL
Rat [1]; 0.5 h
  concentration in plasma: 34.8 ng/mL
Rat [1]; 1 h
  concentration in plasma: 5.3 ng/mL
Rat [2]; 5 min
  concentration in plasma: 63.7 ng/mL
Rat [2]; 10 min
  concentration in plasma: 60.4 ng/mL
Rat [2]; 0.5 h
  concentration in plasma: 23.2 ng/mL
Rat [2]; 1 h
  concentration in plasma: 4.5 ng/mL
Rat [3]; 0.25 h
  concentration in plasma: 10.5 ng/mL
Rat [3]; 0.5 h
  concentration in plasma: 3.7 ng/mL
Rat [3]; 1 h
  concentration in plasma: 1.3 ng/mL
Rat [3]; 2 h
  concentration in plasma: 2.6 ng/mL
Rat [3]; 4 h
  concentration in plasma: 1.5 ng/mL
Rat [4]; 5 min
  concentration in plasma: 52 ng/mL
Rat [4]; 10 min
  concentration in plasma: 148 ng/mL
Rat [4]; 0.5 h
  concentration in plasma: 46.6 ng/mL
Rat [4]; 1 h
  concentration in plasma: 9.7 ng/mL
Rat [4]; 2 h
  concentration in plasma: 1.1 ng/mL
Rat [5]; 0.25 h
  concentration in plasma: 68.5 ng/mL
Rat [5]; 0.5 h
  concentration in plasma: 23.2 ng/mL
Rat [5]; 1 h
  concentration in plasma: 5 ng/mL
Rat [5]; 2 h
  concentration in plasma: 1.2 ng/mL
Rat [6]; 0.25 h
  concentration in plasma: 6.9 ng/mL
Rat [6]; 0.5 h
  concentration in plasma: 5 ng/mL
Rat [6]; 1 h
  concentration in plasma: 1 ng/mL
Rat [6]; 2 h
  concentration in plasma: 4.6 ng/mL
Rat [6]; 4 h
  concentration in plasma: 1 ng/mL
Rat [7]; 5 min, dosed: Simazine, 0.4000000000 mg/kg, iv
  concentration in plasma: 91.6 ng/mL
Rat [7]; 10 min, dosed: Simazine, 0.4000000000 mg/kg, iv
  concentration in plasma: 101 ng/mL
Rat [7]; 0.25 h, dosed: Simazine, 2.0000000000 mg/kg, oral
  concentration in plasma: 6.9 ng/mL
Rat [7]; 0.5 h, dosed: Simazine, 0.4000000000 mg/kg, iv
  concentration in plasma: 43 ng/mL
Rat [7]; 0.5 h, dosed: Simazine, 2.0000000000 mg/kg, oral
  concentration in plasma: 2.4 ng/mL
Rat [7]; 1 h, dosed: Simazine, 0.4000000000 mg/kg, iv
  concentration in plasma: 3.7 ng/mL

## Oc1cc(Cl)ccc1Oc1ccc(Cl)cc1Cl [Triclosan]
Rat [8]; 5 min
  concentration in plasma: 903 ng/mL
Rat [8]; 10 min
  concentration in plasma: 367 ng/mL
Rat [8]; 0.5 h
  concentration in plasma: 200 ng/mL
Rat [9]; 5 min
  concentration in plasma: 469 ng/mL
Rat [9]; 10 min
  concentration in plasma: 374 ng/mL
Rat [9]; 0.5 h
  concentration in plasma: 102 ng/mL
Rat [9]; 1 h
  concentration in plasma: 24.9 ng/mL
Rat [10]; 5 min
  concentration in plasma: 1 ng/mL
Rat [10]; 10 min
  concentration in plasma: 2.1 ng/mL
Rat [10]; 0.5 h
  concentration in plasma: 5.7 ng/mL
Rat [10]; 1 h
  concentration in plasma: 10.4 ng/mL
Rat [10]; 2 h
  concentration in plasma: 5 ng/mL
Rat [10]; 72 h
  concentration in plasma: 2.9 ng/mL
Rat [11]; 5 min
  concentration in plasma: 72.7 ng/mL
Rat [11]; 10 min
  concentration in plasma: 36.7 ng/mL
Rat [11]; 0.5 h
  concentration in plasma: 23.9 ng/mL
Rat [11]; 1 h
  concentration in plasma: 6.6 ng/mL
Rat [7]; 5 min, dosed: Triclosan, 1.0000000000 mg/kg, iv
  concentration in plasma: 474 ng/mL
Rat [7]; 10 min, dosed: Triclosan, 1.0000000000 mg/kg, iv
  concentration in plasma: 211 ng/mL
Rat [7]; 0.5 h, dosed: Triclosan, 1.0000000000 mg/kg, iv
  concentration in plasma: 39.6 ng/mL
Rat [12]; 5 min
  concentration in plasma: 270 ng/mL
Rat [12]; 10 min
  concentration in plasma: 129 ng/mL
Rat [12]; 0.5 h
  concentration in plasma: 24.8 ng/mL
Rat [12]; 1 h
  concentration in plasma: 6.4 ng/mL
Rat [12]; 72 h
  concentration in plasma: 6.2 ng/mL
